Read-outs that look alike come from different tables or passages of the source. No end group written: not given here.
Columns and labels:
[1] = tested on: NPC-TW07 cells; assay: Flow cytometry analysis of FITC-peptide binding to cells; assay type: cell-based
Text: (§1) The cultured cells, including nasopharyngeal carcinoma (NPC-TW01 and NPC-TW07), non-small cell lung cancer (H1299 and A549), neuroblastoma (Be2C), breast cancer (MB157) and immortalized embryonic renal epithelia (TEKID) ([…]) are subjected to flow cytometer (FACSCAN, BD Co., U.S.A.) after the FITC (Fluorescein isothiocyanate)-targeted peptide SEQ ID NO:1 treatment. Simultaneously, FITC-control peptide, FITC-biotin-targeted peptide SEQ ID NO: 1 (B-P) and FITC-biotin-control peptide (B-C-P) are used for flow cytometry comparison.

[2] = tested on: NPC-TW01 cells; assay: as above; assay type: cell-based
Text: as §1

[3] = tested on: non-small cell lung cancer (H1299) cells; assay: as above; assay type: cell-based
Text: as §1

[4] = tested on: neuroblastoma (Be2C) cells; assay: as above; assay type: cell-based
Text: as §1

[5] = tested on: breast cancer (MB157) cells; assay: as above; assay type: cell-based
Text: as §1

[6] = tested on: non-small cell lung cancer (A549) cells; assay: as above; assay type: cell-based
Text: as §1

[7] = tested on: immortalized embryonic renal cell line (293T); assay: as above; assay type: cell-based, human; conditions: 293T immortalized renal cell line
Text: as §1

[8] = tested on: hepatoma and pancreatic cancer cells; assay: FITC-peptide binding to hepatoma and pancreatic cancer cells; assay type: cell-based
[9] = tested on: hepatoma (Hep G2) cell line; assay: Prussian blue staining of hepatoma cell line; assay type: cell-based
Text: In addition to the targeted peptide SEQ ID NO: 1, the present invention also provides another targeted peptide SEQ ID NO: 2 for synthesizing the targeted peptide SEQ ID NO: 2-linked dextran-coated iron oxide nanoparticles.

[10] = tested on: blood monocytes; assay: Prussian blue staining of blood monocytes; assay type: cell-based; conditions: 1.0 hr and 37° C. for 4 hr
Experimental: (§3) Blood monocytes, hepatoma (Hep G2) and pancreatic cancer (Pan 1) cell lines are incubated with P-Dex-Fe3O4 nanoparticle for 1.0 hr and 37° C. for 4 hr, and then are stained with Prussian blue reagent.

[11] = tested on: Huh-7 tumor cells; assay: Prussian blue staining of formalin-fixed, Triton X-100 treated HCC cell line; assay type: cell-based
Experimental: (§2) After the blood smears were fixed by formaldehyde, they were treated with or without Triton X-100 detergent and then stained with L-P-Fe3O4, SP-94-P-Fe3O4 or Control-P-Fe3O4 (C-P-Fe3O4) (40 μg/mL) and subjected to Prussian blue reaction with nuclear fast red contrast staining. Using the similar peptide histochemical procedure, the HepG2 and Huh-7 tumor cells were also stained. But in addition to the L-P-Fe3O4 and SP-94-P-Fe3O4, a ratio of 1:1 of L-P-Fe3O4: SP-94-P-Fe3O4 were mixed and used to stain the HepG2 and Huh-7 tumor cells.

[12] = tested on: HepG2 tumor cells; assay: as above; assay type: cell-based
Experimental: as §2

[13] = tested on: pancreatic cancer sections; assay: Peptide histochemical localization in pancreatic surgical specimens; parameters: species or system human; conditions: formalin-fixed paraffin-embedded
Text: Peptide histochemical diagnosis of the present invention can be applied to pancreatic surgical specimens, ether the targeted peptide is SEQ ID NO: 1 or SEQ ID NO: 2.

[14] = tested on: breast cancer cells (MDA-MB-231); assay: Prussian blue staining of breast cancer cell line; assay type: cell-based
[15] = tested on: hepatoma surgical specimens; assay: Peptide histochemical localization in hepatoma surgical specimens; parameters: species or system human; conditions: for Prussian blue reaction product in tumor cells of hepatoma sections: formalin-fixed paraffin-embedded
Text: Peptide histochemical diagnosis of the present invention can be applied to hepatoma surgical specimens.

[16] = tested on: hepatocellular carcinoma surgical specimens; assay: Peptide histochemistry of hepatocellular carcinoma (HCC) surgical specimens; parameters: species or system human; conditions: for Prussian blue staining pattern in HCC surgical sections: 40 μg per mL, overnight; for Average percentage of stained tumor cell number 25-50% / Average percentage of stained tumor cell number <25% / Average percentage of stained tumor cell number >75%: N = 30, ten HPF (x 400)
Experimental: For hepatocellular carcinoma surgical specimens, after the deparaffinization of the paraffin-embedded sections and retrieval of targeted protein molecule, as part of the routine immunohistochemistry described as above-mentioned, the sections were incubated overnight with (a) The L-P-Fe3O4 (40 μg per mL); (b) SP-94-P-Fe3O4 (40 μg/mL); (c) one to one ratio of (a) and (b), then with routine Prussian blue reagents, followed by a counter staining for 2 min with nuclear fast red solution. The present invention has used this method to examine 30 hepatocellular carcinoma surgical specimens without difficulty. To count the positive stained cell number of the Prussian blue stained cells in each paraffin section, which are counted 10 high power fields (×400).

[17] = tested on: breast cancer surgical specimens; assay: Peptide histochemical localization in breast cancer surgical specimens; parameters: species or system human
Experimental: (§4) The sections are incubated overnight at 4° C. with the P-Dex-Fe3O4 nanoparticles, and washed with PBS, then are incubated for 15-30 min with routine Prussian blue reagent (containing 2% potassium ferricyanide (Sigma-aldrich.com. St Louis Mo., U.S.A.) and 0.5 N HCl in dH2O=1:1), followed by counterstaining for 5 min with nuclear fast red solution, washed with water, and mounted with 50% glycerol directly or with balsam after alcohol dehydration.

[18] = tested on: NPC biopsy specimens; assay: Peptide histochemical localization in formalin-fixed paraffin-embedded NPC biopsy specimens; parameters: species or system human; conditions: overnight at 4° C.
Experimental: as §4

[19] = tested on: pancreatic cancer (Pan 1) cell line; assay: Prussian blue staining of pancreatic cancer cell line; assay type: cell-based
Experimental: as §3

[20] = tested on: normal peripheral blood cells; assay: Prussian blue staining of normal peripheral blood smears; assay type: cell-based, human
Text: The present invention prepared L-peptide-linked dextran-coated iron oxide nanoparticles, such as, L-P-Fe3O4, SP-94-P-Fe3O4, PC5-52-P-Fe3O4 and control-peptide-Fe3O4 nanoparticles (C-P-Fe3O4). The dextran coated-Fe3O4 nanoparticles (Dex-Fe3O4) were purchased from MAGQU Company. This company conjugates L-peptide, SP-94-peptide and PC5-52-peptide, separately, to the Dex-Fe3O4 nanoparticles. Each Dex-Fe3O4 can be linked with more than 10 peptide molecules. For localization of the peptide targeted protein in HepG2 and Huh-7 cell lines, the present invention first have to check whether our peptide can also bind to the mononuclear cells in the human peripheral blood. The mononuclear cells were obtained from the normal personal blood using Histopaque-1077 solution (SIGMA, St, Louis, Mo. U.S.A).
as §2

[21] = tested on: NPC cells (NPC-TW01); assay: Prussian blue staining of cultured NPC cells incubated with peptide-linked iron oxide nanoparticles; assay type: cell-based; conditions: 4° C. for 1.0 hr and 37° C. for 4 hr
Text: The dextran coated-Fe3O4 is linked with the targeted peptide SEQ ID NO:1 or the FITC-targeted peptide SEQ ID NO:1 by the MagQu Company. Dextran is used as the hydrophilic surfactant layer. The iron oxide fluid with the desired concentration is available by diluting the highly concentrated iron oxide fluid with a pH 7.4 phosphate buffered saline (PBS) solution. […] Cells are washed in a 2% fetal bovine serum in PBS. After fixation, the binding ability between the targeted peptide SEQ ID NO: 1 and tumor cells can be observed by Prussian blue reagent; each iron oxide nanoparticle is bound by approximately above 10 targeted peptides.

[22] = tested on: HepG2 xenografts; assay: Peptide targeted chemotherapy of mice bearing HepG2 xenografts; assay type: in vivo; conditions: SCID mice bearing hepatoma xenograft
Experimental: For the peptide targeted chemotherapy, 40 male SCID mice were transplanted with […] HepG2 cells into their right thigh subcutaneously; after 10 days, solid xenografts measuring approximately 0.8 cm in diameter were found in each mouse, then they were divided into four groups (each group included 10 mice). The first group was injected with PBS; the second and third groups were injected either with L-P-L-D or PC5-52-P-L-D, separately. Each dose contained 2 mg doxorubicin/kg of mouse body weight. The fourth group mice were injected with L-P-L-D (1 mg doxorubicin/kg) mixed with PC5-52-P-L-D (1 mg doxorubicin/kg). All doses were injected through the tail vein, once per week, for a total of 4 injections, and all animals were sacrificed at day 35. The body weight and tumor size were measured weekly. All animals were examined by routine autopsy. The xenograft tumors and all visceral organs were examined by histopathological sections after stained by hematoxylin and eosin. The pegylated peptide was linked to L-D in our laboratory according to our previously published methods (Cancer Res. 64:8002-8008, Nov. 1, 2004). For comparison, another animal experiment was performed. In the later experiment, the present invention used NSG (NOD-SCID immunodeficiency gamma strain animals); the experiments were totally similar to the NOD SCID mice case. […]

[23] = tested on: NPC cells; assay: Addition of targeted peptide to NPC cell culture medium; assay type: cell-based; conditions: 1 mg/mL in NPC cells culture medium, sustained to 10 days
Text: Apparently, this finding indicate that the protein bound by the targeted peptide is not a receptor protein or the like thereof.

FITC-linked control peptide SEQ ID NO: 3: FITC-labelled control peptide (RLLDTNRPLGGG; also: FITC label) [reference compound]
binding to NPC-TW07 cells (flow cytometry histogram) [1]: very weak binding activity

FITC-targeted peptide SEQ ID NO: 1: fluorescein isothiocyanate-labelled targeted peptide SEQ ID NO:1 (RLLDTNRPLLPY; also: FITC label)
binding to NPC-TW01 cells (flow cytometry) [2]: a clear binding peak
binding to H1299 cells (flow cytometry) [3]: a clear binding peak
binding to Be2C cells (flow cytometry) [4]: a clear binding peak
binding to MB157 cells (flow cytometry) [5]: a clear binding peak
binding to NPC-TW07 cells (flow cytometry histogram) [1]: a clear peak is found in the histogram
binding to A549 cells (flow cytometry) [6]: a clear binding peak
binding to 293T cells (flow cytometry) [7]: without showing any binding phenomenon

FITC-targeted peptide SEQ ID NO: 2: FITC-labelled targeted peptide SEQ ID NO: 2 (SFSIIHTPILPL; also: FITC label)
binding to hepatoma and pancreatic cancer cells [8]: can be used to bind to hepatoma and pancreatic cancer cells

P-Dex-Fe3O4 (RLLDTNRPLLPY)
Prussian blue reaction product in hepatoma cell line [9]: show blue reaction products
Prussian blue reaction product in hepatoma cell line ([9]; listed as targeted peptide SEQ ID NO:1-linked dextran-coated iron oxide nanoparticles): blue reaction product
Prussian blue reaction product in blood monocytes [10]: no reaction product
Prussian blue stained Huh-7 tumor cells [11]: stained cell number is somewhat a little more than that of SP-94-P-Fe3O4 stained case
Prussian blue stained HepG2 tumor cells [12]: many tumor cells were stained by a blue reaction product
Prussian blue reaction product in pancreatic cancer sections [13]: all show the reaction products
Prussian blue reaction product in breast cancer cells [14]: the reaction products appear in most of the cytoplasm of breast cancer cells
Prussian blue reaction product in tumor cells of hepatoma sections [15]: show in single infiltrating tumor cells
Prussian blue reaction product in normal cells of hepatoma sections ([15]; normal cells compressed by tumor cells): the blue reaction products do not show in the normal cells
Prussian blue staining pattern in HCC surgical sections [16]: the Prussian blue reaction product was easily identified in the tumor cells in stained sections
Average percentage of stained tumor cell number 25-50% [16]: 7 cases
Average percentage of stained tumor cell number <25% [16]: 6 cases
Average percentage of stained tumor cell number >75% [16]: 17 cases
Prussian blue reaction product in tumor cells from breast cancer metastatic axillary lymph nodes [17]: reveal blue reaction product
Prussian blue reaction product in stromal regions in tumor nests ([17]; breast cancer sections): no blue reaction product
Prussian blue reaction product in breast cancer sections ([17]; formalin-fixed paraffin-embedded, specimens more than 1 cm in diameter): show the Prussian blue reaction products
Prussian blue reaction product in tumor cells of NPC biopsy sections [18]: the Prussian blue reaction product is easily identified in the tumor cells of stained sections
Prussian blue reaction product in pancreatic cancer cell line [19]: show blue reaction products
Prussian blue reaction product in fixed blood smears treated with Triton X-100 ([20]; with Triton X-100): the mononuclear cells but not red blood cells showed blue reaction product in their cytoplasm
Prussian blue reaction product in blood smears fixed in formalin ([20]; without Triton X-100): no reaction product was seen
Prussian blue reaction product in NPC cells [21]: the reaction products are seen in the cytoplasm of a majority of the tumor cells

SP-94-P-Fe3O4 (SFSIIHTPILPL)
Prussian blue reaction product in hepatoma cell line [9]: blue reaction product
Prussian blue stained HepG2 tumor cells [12]: the stained cell number was lower than that of the L-P-Fe3O4 treated case
Prussian blue reaction product in pancreatic cancer sections [13]: all show the reaction products
Prussian blue reaction product in tumor cells of hepatoma sections [15]: the Prussian blue products can also be observed in the tumor cells
Prussian blue staining pattern in HCC surgical sections [16]: the staining pattern was the same as L-P-Fe3O4 staining
Average percentage of stained tumor cell number 25-50% [16]: 9 cases
Average percentage of stained tumor cell number <25% [16]: 5 cases
Average percentage of stained tumor cell number >75% [16]: 16 cases

control peptide (RLLDTNRPLGGG; also: FITC or biotin label)
adverse event / visceral organs [22]: the visceral organs revealed marked apoptotic change
tumor growth / xenograft size [22]: the xenograft size was also decreased

targeted peptide SEQ ID NO: 1: 12 amino acid targeted peptide (L-peptide) obtained from nasopharyngeal carcinoma (RLLDTNRPLLPY)
change of tumor cell morphology and behavior [23]: no any specific change of tumor cell morphology and behavior

From patent US10487119B2, “Peptides for diagnosis and treatment of cancer” (National Taiwan University, priority 2013, dated 2019)
